Patent US20110045101A1, “FUNGICIDAL SUBSTITUTED AZOLES” (E.I. Du Pont De Nemours and Company, priority 2009, published 2011)
Marks after values point to notes of the source that are not given here.

Assays:
Format in all cases: in vivo
Conditions in all cases: 100 = 100% disease control
[1] = test system: Botrytis cinerea; experiment: Test C: tomato Botrytis on tomato seedlings, sprayed the day before inoculation, visual disease rating
In short: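 Spray to run-off on tomato seedlings; test conc. 200 ppm (≈500 g/ha), some entries 40 ppm. Formulation: acetone 3% of final vol., then acetone/water 50:50 + 250 ppm polyhydric alcohol ester surfactant.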

[2] = test system: Alternaria solani; experiment: Test D: tomato early blight, sprayed the day before inoculation, visual disease rating
In short: (§1)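 Spray suspension: acetone 3% of final volume, then 50/50 acetone/water plus 250 ppm Trem® 014. Applied to run-off on seedlings at 200 ppm (≈500 g/ha); starred entries tested at 40 ppm.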

[3] = test system: Septoria nodorum; experiment: Test F: wheat glume blotch on wheat seedlings, sprayed the day before inoculation, visual disease rating
In short: as §1

[4] = test system: Septoria tritici; experiment: Test G: wheat leaf blotch on wheat seedlings, sprayed the day before inoculation, visual disease rating
In short: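 Compounds dissolved in acetone (3% of final volume), then suspended in 50/50 acetone/water with 250 ppm Trem® 014 and sprayed to run-off on seedlings at 200 ppm (≈500 g/ha) or 40 ppm where marked. Inoculation with spores followed next day; visual rating after 48 h saturated at 24° C plus 19 days at 20° C.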

[5] = test system: Puccinia recondita f. sp. tritici; experiment: Test H: wheat leaf rust, test suspension sprayed after inoculation of wheat seedlings, visual disease rating
In short: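 Wheat seedlings inoculated with P. recondita spores, held 24 h saturated at 20 °C, then 2 days in growth chamber at 20 °C; compound suspension (acetone/water with Trem 014) sprayed to run-off afterwards. Rated visually; 200 ppm (≈500 g/ha) unless marked *, which denotes 40 ppm.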

[6] = test system: Puccinia recondita f. sp. tritici; experiment: Test I: wheat leaf rust on wheat seedlings, sprayed the day before inoculation, visual disease rating
In short: as §1

[7] = test system: Erysiphe graminis f. sp. tritici; experiment: Test J: wheat powdery mildew on wheat seedlings, sprayed the day before inoculation, visual disease rating
In short: as §1

[8] = 200 ppm, 0 = no control relative to controls
[9] = 40 ppm (marked *), 0 = no control

Row | SMILES | Test C disease control rating ([1]; 200 ppm, 0 = no control) | Test D disease control rating ([2]; 200 ppm, 0 = no control) | Test F disease control rating ([3]; 200 ppm, 0 = no control) | Test G disease control rating ([4]; 200 ppm, 0 = no control) | Test H disease control rating ([5]; 200 ppm, 0 = no control) | Test I disease control rating ([6]; 200 ppm, 0 = no control) | Test J disease control rating ([7]; 200 ppm, 0 = no control) | further results
1 | COc1cc(F)c(-c2c(Cl)nc(Br)n2Cc2ccc(Cl)cc2)c(F)c1 [compound 283] | 100% | 98% | 0% | 93% | 0% | 93% | 99% | 
2 | COc1cc(F)c(-c2c(Cl)nc(Cl)n2Cc2ccc(Cl)cc2)c(F)c1 [compound 284] | 100% | 99% | 92% | 95% | 6% | 99% | 100% | 
3 | Fc1ccc(F)c(-c2c(Cl)nc(Cl)n2Cc2ccc(Cl)cc2)c1F [compound 285] | 99% | 85% | 83% | 94% | 98% | 100% | 100% | 
4 | Fc1ccc(F)c(-c2c(Cl)nc(Br)n2Cc2ccc(Cl)cc2)c1F [compound 286] | 99% | 96% | 79% | 95% | 64% | 99% | 100% | 
5 | COc1cc(F)c(-c2c(Cl)nc(C)n2Cc2ccc(Cl)cc2)c(F)c1 [compound 287] | 100% | 100% | 99% | 95% | 17% | 100% | 99% | 
6 | COc1ccc(F)c(-c2c(Cl)nc(Cl)n2Cc2ccc(Cl)cc2)c1F [compound 288] | 100% | 91% | 73% | 94% | 32% | 96% | 99% | 
7 | COc1ccc(F)c(-c2c(Cl)nc(Br)n2Cc2ccc(Cl)cc2)c1F [compound 289] | 100% | 96% | 0% | 94% | 11% | 94% | 97% | 
8 | Clc1ccc(-c2c(Cl)nc(Br)n2Cc2cccc(Cl)c2)cc1 [compound 290] | 95% | 0% | 0% | 85% | 11% | 19% | 0% | 
9 | COc1cc(F)c(-c2c(Cl)nc(Cl)n2Cc2ccc(C)cc2)c(F)c1 [compound 291] | 99% | 80% | 0% | 94% | 6% | 98% | 94% | 
10 | COc1cc(F)c(-c2c(Cl)nc(Br)n2Cc2ccc(C)cc2)c(F)c1 [compound 292] | 99% | 98% | 69% | 93% | 11% | 99% | 99% | 
11 | Cc1nc(Cl)c(-c2c(F)ccc(F)c2F)n1Cc1ccc(Cl)cc1 [compound 293] | 99% | 91% | 0% | 95% | 6% | 99% | 100% | 
12 | COc1ccc(F)c(-c2c(Cl)nc(C)n2Cc2ccc(Cl)cc2)c1F [compound 294] | 99% | 100% | 98% | 96% | 11% | 98% | 97% | 
13 | Cc1nc(Cl)c(-c2ccc(Cl)cc2)n1Cc1cccc(Cl)c1 [compound 295] | 99% | 0% | 0% | 94% | 0% | 80% | 0% | 
14 | COc1cc(F)c(-c2c(Cl)nc(C)n2Cc2ccc(C)cc2)c(F)c1 [compound 296] | 100% | 96% | 86% | 96% | 17% | 99% | 97% | 
15 | COc1ccc(F)c(-c2c(Cl)ncn2-c2ccc(F)cc2)c1F [compound 299] |  |  |  |  |  |  |  | Test C disease control rating [1, 8]: 99%; Test D disease control rating [2, 8]: 99%; Test F disease control rating [3, 8]: 90%; Test G disease control rating [4, 8]: 97%; Test H disease control rating [5, 8]: 0%; Test I disease control rating [6, 8]: 99%; Test J disease control rating [7, 8]: 99%
16 | COc1ccc(F)c(-c2c(Cl)ncn2-c2cccc(C)c2)c1F [compound 300] |  |  |  |  |  |  |  | Test C disease control rating [1, 8]: 99%; Test D disease control rating [2, 8]: 98%; Test F disease control rating [3, 8]: 0%; Test G disease control rating [4, 8]: 91%; Test H disease control rating [5, 8]: 48%; Test I disease control rating [6, 8]: 97%; Test J disease control rating [7, 8]: 99%
17 | Fc1ccc(-n2c(Br)nc(Br)c2-c2ccc(Cl)c(F)c2)c(Cl)c1 [compound 301] |  |  |  |  |  |  |  | Test C disease control rating [1, 8]: 100%; Test D disease control rating [2, 8]: 94%; Test F disease control rating [3, 8]: 0%; Test G disease control rating [4, 8]: 95%; Test H disease control rating [5, 8]: 6%; Test I disease control rating [6, 8]: 91%; Test J disease control rating [7, 8]: 96%
18 | Fc1ccc(-n2c(Cl)nc(Cl)c2-c2ccc(Cl)c(F)c2)c(Cl)c1 [compound 302] |  |  |  |  |  |  |  | Test C disease control rating [1, 8]: 100%; Test D disease control rating [2, 8]: 100%; Test F disease control rating [3, 8]: 0%; Test G disease control rating [4, 8]: 94%; Test H disease control rating [5, 8]: 17%; Test I disease control rating [6, 8]: 98%; Test J disease control rating [7, 8]: 100%
19 | Cc1nc(Cl)c(-c2c(F)cccc2F)n1-c1ccc2ccccc2c1 [compound 303] |  |  |  |  |  |  |  | Test C disease control rating [1, 9]: 100* %; Test D disease control rating [2, 9]: 99* %; Test F disease control rating [3, 9]: 98* %; Test G disease control rating [4, 9]: 96* %; Test H disease control rating [5, 9]: 0* %; Test I disease control rating [6, 9]: 74* %; Test J disease control rating [7, 9]: 81* %
20 | Cc1nc(Cl)c(-c2c(F)cccc2F)n1-c1ccc(Cl)c2ccccc12 [compound 304] |  |  |  |  |  |  |  | Test C disease control rating [1, 9]: 0* %; Test D disease control rating [2, 9]: 0* %; Test F disease control rating [3, 9]: 0* %; Test G disease control rating [4, 9]: 27* %; Test H disease control rating [5, 9]: 0* %; Test I disease control rating [6, 9]: 0* %; Test J disease control rating [7, 9]: 0* %
